Results published in the supplement of paper PMC10307832.

Tests used:
Assay in all cases: relative viability (nuclei count vs DMSO), 5 days (fraction); higher = more cells survive
[1] = compound: C1CNCCC1C2=CC(=NN2)C3=CC=NC=C3 + CC(=O)c1c(C)c2cnc(Nc3ccc(N4CCNCC4)cn3)nc2n(C2CCCC2)c1=O [Palbociclib] (partner 0.5 µM)
Method in brief: (§1)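 Each reported value is a median over duplicate plates. It expresses relative viability: treated-well nuclei count divided by vehicle-well nuclei count. Lung cancer cell lines in 1536-well plates were dosed by pin tool a day after seeding, alone with one drug or with a fixed anchor-drug dose plus five library-drug doses (not always all listed) in √10 steps, and nuclei were counted after 5 days.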

[2] = compound: C1CNCCC1C2=CC(=NN2)C3=CC=NC=C3 + CCNC(=O)c1noc(-c2cc(C(C)C)c(O)cc2O)c1-c1ccc(CN2CCOCC2)cc1 [Luminespib] (partner 0.01 µM)
Method in brief: as §1

[3] = compound: C1CNCCC1C2=CC(=NN2)C3=CC=NC=C3 + O=C(CCCCCCC(=O)Nc1ccccc1)NO [Vorinostat] (partner 1 µM)
Method in brief: as §1

[4] = compound: C[C@@H](N)c1ccc(C(=O)Nc2ccnc3[nH]ccc23)cc1 + CC(C)C[C@H](NC(=O)[C@H](Cc1ccccc1)NC(=O)c1cnccn1)B(O)O [Bortezomib] (partner 0.002 µM)
Method in brief: as §1

## UMC-11
[1]; first compound 0.08 µM
  relative viability: 0.317
[1]; first compound 0.8 µM
  relative viability: 0.343
[1]; first compound 2.53 µM
  relative viability: 0.325
[1]; first compound 8 µM
  relative viability: 0.333
[2]; first compound 0.08 µM
  relative viability: 0.959
[2]; first compound 0.8 µM
  relative viability: 1.19
[2]; first compound 2.53 µM
  relative viability: 1.05
[2]; first compound 8 µM
  relative viability: 1.14
[3]; first compound 0.08 µM
  relative viability: 0.394
[3]; first compound 0.8 µM
  relative viability: 0.419
[3]; first compound 2.53 µM
  relative viability: 0.392
[3]; first compound 8 µM
  relative viability: 0.565
[4]; first compound 0.04 µM
  relative viability: 0.669
[4]; first compound 0.1265 µM
  relative viability: 0.717
[4]; first compound 0.4 µM
  relative viability: 0.768
[4]; first compound 1.265 µM
  relative viability: 0.286
[4]; first compound 4 µM
  relative viability: 0.415
